# Data reported in PubChem BioAssay (NCI).
#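 How tested: cells in 96-well plates exposed to compound for 48 hours at five concentrations. The concentration for 50% growth inhibition is given as GI50. The concentration for full growth arrest is given as TGI.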
# Tests used:
# Assay in all cases: inhibition of tumour cell growth, NCI panel, 48 h
# 786-0 renal = test system: 786-0 renal
# A498 renal = test system: A498 renal
# A549 NSCLC = test system: A549 NSCLC
# ACHN renal = test system: ACHN renal
# BT-549 breast = test system: BT-549 breast
# CAKI-1 renal = test system: CAKI-1 renal
# CCRF-CEM leukemia = test system: CCRF-CEM leukemia
# COLO 205 colon = test system: COLO 205 colon
# DU-145 prostate = test system: DU-145 prostate
# EKVX NSCLC = test system: EKVX NSCLC
# HCC-2998 colon = test system: HCC-2998 colon
# HCT-116 colon = test system: HCT-116 colon
# HCT-15 colon = test system: HCT-15 colon
# HL-60(TB) leukemia = test system: HL-60(TB) leukemia
# HOP-62 NSCLC = test system: HOP-62 NSCLC
# HOP-92 NSCLC = test system: HOP-92 NSCLC
# HS 578T breast = test system: HS 578T breast
# HT29 colon = test system: HT29 colon
# IGROV1 ovarian = test system: IGROV1 ovarian
# K-562 leukemia = test system: K-562 leukemia
# KM12 colon = test system: KM12 colon
# LOX IMVI melanoma = test system: LOX IMVI melanoma
# M14 melanoma = test system: M14 melanoma
# MALME-3M melanoma = test system: MALME-3M melanoma
# MCF7 breast = test system: MCF7 breast
# MDA-MB-231 breast = test system: MDA-MB-231 breast
# MDA-MB-435 = test system: MDA-MB-435
# MDA-MB-468 breast = test system: MDA-MB-468 breast
# MOLT-4 leukemia = test system: MOLT-4 leukemia
# NCI-H226 lung = test system: NCI-H226 lung
# NCI-H23 lung = test system: NCI-H23 lung
# NCI-H460 lung = test system: NCI-H460 lung
# NCI-H522 lung = test system: NCI-H522 lung
# OVCAR-3 ovarian = test system: OVCAR-3 ovarian
# OVCAR-4 ovarian = test system: OVCAR-4 ovarian
# OVCAR-5 ovarian = test system: OVCAR-5 ovarian
# OVCAR-8 ovarian = test system: OVCAR-8 ovarian
# PC-3 prostate = test system: PC-3 prostate
# RPMI-8226 leukemia = test system: RPMI-8226 leukemia
# RXF 393 renal = test system: RXF 393 renal
# SF-268 CNS = test system: SF-268 CNS
# SF-295 CNS = test system: SF-295 CNS
# SF-539 CNS = test system: SF-539 CNS
# SK-MEL-2 melanoma = test system: SK-MEL-2 melanoma
# SK-MEL-28 melanoma = test system: SK-MEL-28 melanoma
# SK-MEL-5 melanoma = test system: SK-MEL-5 melanoma
# SK-OV-3 ovarian = test system: SK-OV-3 ovarian
# SN12C renal = test system: SN12C renal
# SNB-19 CNS = test system: SNB-19 CNS
# SNB-75 CNS = test system: SNB-75 CNS
# SR leukemia = test system: SR leukemia
# SW-620 colon = test system: SW-620 colon
# T-47D breast = test system: T-47D breast
# TK-10 renal = test system: TK-10 renal
# U251 CNS = test system: U251 CNS
# UACC-257 melanoma = test system: UACC-257 melanoma
# UACC-62 melanoma = test system: UACC-62 melanoma
# UO-31 renal = test system: UO-31 renal
structure (smiles),measurement,setting,value
CCOc1ccc(/C=N/NC(=O)Cn2nc(Cc3ccccc3)c3onc(C)c3c2=O)cc1,GI50,786-0 renal,5.99 µM
same,TGI,786-0 renal,17.6 µM
same,GI50,A498 renal,19.9 µM
same,TGI,A498 renal,> 59.6 µM
same,GI50,A549 NSCLC,> 100 µM
same,TGI,A549 NSCLC,> 100 µM
same,GI50,ACHN renal,11.3 µM
same,TGI,ACHN renal,> 52.4 µM
same,GI50,BT-549 breast,13.5 µM
same,TGI,BT-549 breast,> 24.8 µM
same,GI50,CAKI-1 renal,14 µM
same,TGI,CAKI-1 renal,> 95.8 µM
same,GI50,CCRF-CEM leukemia,> 100 µM
same,TGI,CCRF-CEM leukemia,> 100 µM
same,GI50,COLO 205 colon,> 100 µM
same,TGI,COLO 205 colon,> 100 µM
same,GI50,DU-145 prostate,> 100 µM
same,TGI,DU-145 prostate,> 100 µM
same,GI50,EKVX NSCLC,> 100 µM
same,TGI,EKVX NSCLC,> 100 µM
same,GI50,HCC-2998 colon,> 100 µM
same,TGI,HCC-2998 colon,> 100 µM
same,GI50,HCT-116 colon,> 100 µM
same,TGI,HCT-116 colon,> 100 µM
same,GI50,HCT-15 colon,> 100 µM
same,TGI,HCT-15 colon,> 100 µM
same,GI50,HL-60(TB) leukemia,> 100 µM
same,TGI,HL-60(TB) leukemia,> 100 µM
same,GI50,HOP-62 NSCLC,4.4 µM
same,TGI,HOP-62 NSCLC,28.4 µM
same,GI50,HOP-92 NSCLC,5.71 µM
same,TGI,HOP-92 NSCLC,21.7 µM
same,GI50,HS 578T breast,3.57 µM
same,TGI,HS 578T breast,> 25.6 µM
same,GI50,HT29 colon,> 100 µM
same,TGI,HT29 colon,> 100 µM
same,GI50,IGROV1 ovarian,47.4 µM
same,TGI,IGROV1 ovarian,> 100 µM
same,GI50,K-562 leukemia,> 100 µM
same,TGI,K-562 leukemia,> 100 µM
same,GI50,KM12 colon,> 100 µM
same,TGI,KM12 colon,> 100 µM
same,GI50,LOX IMVI melanoma,> 100 µM
same,TGI,LOX IMVI melanoma,> 100 µM
same,GI50,M14 melanoma,> 21.6 µM
same,TGI,M14 melanoma,> 100 µM
same,GI50,MALME-3M melanoma,12 µM
same,TGI,MALME-3M melanoma,> 100 µM
same,GI50,MCF7 breast,> 100 µM
same,TGI,MCF7 breast,> 100 µM
same,GI50,MDA-MB-231 breast,8.26 µM
same,TGI,MDA-MB-231 breast,> 37.6 µM
same,GI50,MDA-MB-435,> 100 µM
same,TGI,MDA-MB-435,> 100 µM
same,GI50,MDA-MB-468 breast,9.09 µM
same,TGI,MDA-MB-468 breast,44.6 µM
same,GI50,MOLT-4 leukemia,> 100 µM
same,TGI,MOLT-4 leukemia,> 100 µM
same,GI50,NCI-H226 lung,4.76 µM
same,TGI,NCI-H226 lung,> 24.7 µM
same,GI50,NCI-H23 lung,30.4 µM
same,TGI,NCI-H23 lung,> 100 µM
same,GI50,NCI-H460 lung,> 100 µM
same,TGI,NCI-H460 lung,> 100 µM
same,GI50,NCI-H522 lung,> 31.3 µM
same,TGI,NCI-H522 lung,> 87.2 µM
same,GI50,OVCAR-3 ovarian,> 100 µM
same,TGI,OVCAR-3 ovarian,> 100 µM
same,GI50,OVCAR-4 ovarian,2.93 µM
same,TGI,OVCAR-4 ovarian,> 100 µM
same,GI50,OVCAR-5 ovarian,> 100 µM
same,TGI,OVCAR-5 ovarian,> 100 µM
same,GI50,OVCAR-8 ovarian,> 100 µM
same,TGI,OVCAR-8 ovarian,> 100 µM
same,GI50,PC-3 prostate,> 100 µM
same,TGI,PC-3 prostate,> 100 µM
same,GI50,RPMI-8226 leukemia,> 100 µM
same,TGI,RPMI-8226 leukemia,> 100 µM
same,GI50,RXF 393 renal,5.82 µM
same,TGI,RXF 393 renal,22.5 µM
same,GI50,SF-268 CNS,15.7 µM
same,TGI,SF-268 CNS,> 100 µM
same,GI50,SF-295 CNS,14.7 µM
same,TGI,SF-295 CNS,> 61 µM
same,GI50,SF-539 CNS,19.5 µM
same,TGI,SF-539 CNS,> 64.5 µM
same,GI50,SK-MEL-2 melanoma,15.5 µM
same,TGI,SK-MEL-2 melanoma,33.1 µM
same,GI50,SK-MEL-28 melanoma,> 100 µM
same,TGI,SK-MEL-28 melanoma,> 100 µM
same,GI50,SK-MEL-5 melanoma,> 100 µM
same,TGI,SK-MEL-5 melanoma,> 100 µM
same,GI50,SK-OV-3 ovarian,13.8 µM
same,TGI,SK-OV-3 ovarian,> 66.8 µM
same,GI50,SN12C renal,> 100 µM
same,TGI,SN12C renal,> 100 µM
same,GI50,SNB-19 CNS,16.3 µM
same,TGI,SNB-19 CNS,> 52.4 µM
same,GI50,SNB-75 CNS,2.61 µM
same,TGI,SNB-75 CNS,13.8 µM
same,GI50,SR leukemia,> 100 µM
same,TGI,SR leukemia,> 100 µM
same,GI50,SW-620 colon,> 100 µM
same,TGI,SW-620 colon,> 100 µM
same,GI50,T-47D breast,> 20.4 µM
same,TGI,T-47D breast,> 100 µM
same,GI50,TK-10 renal,> 40.2 µM
same,TGI,TK-10 renal,> 66.2 µM
same,GI50,U251 CNS,9.01 µM
same,TGI,U251 CNS,> 100 µM
same,GI50,UACC-257 melanoma,> 100 µM
same,TGI,UACC-257 melanoma,> 100 µM
same,GI50,UACC-62 melanoma,> 19.9 µM
same,TGI,UACC-62 melanoma,> 100 µM
same,GI50,UO-31 renal,> 100 µM
same,TGI,UO-31 renal,> 100 µM
